Experimental data: ChEMBL document CHEMBL1201862, “PubChem BioAssay data set” (2004)
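Where inhibition never reached the appropriate level, the endpoint shown equals the highest concentration tested. Otherwise, values were interpolated linearly from a five-concentration, 48-hour dose response in 96-well plates. The concentration for 50% growth inhibition is given as GI50.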 Calls of active or inactive are those of the source. No stated cut-off is given here; in the data, active = GI50 up to about 1.1 µM and inactive = higher.

Tests used:
Experiment in all cases: growth of human tumour cells (NCI), 48 h
[1] = test system: NCI-H23
[2] = test system: DMS-273
[3] = test system: K562
[4] = test system: SN12C
[5] = test system: RPMI-8226
[6] = test system: HOP-92
[7] = test system: SF-539
[8] = test system: OVCAR-4
[9] = test system: Malme-3M
[10] = test system: HCT-15
[11] = test system: SK-OV-3
[12] = test system: SNB-19
[13] = test system: 786-0
[14] = test system: SF-295
[15] = test system: SK-MEL-28
[16] = test system: ACHN
[17] = test system: T47D
[18] = test system: BT-549
[19] = test system: MCF7
[20] = test system: DU-145

| Structure (SMILES) | GI50 [1] | GI50 [2] | GI50 [3] | GI50 [4] | GI50 [5] | GI50 [6] | GI50 [7] | GI50 [8] | GI50 [9] | GI50 [10] [µM] | GI50 [11] | GI50 [12] | GI50 [13] | GI50 [14] | GI50 [15] | GI50 [16] | GI50 [17] | GI50 [18] | GI50 [19] | GI50 [20] |
| --- | --- | --- | --- | --- | --- | --- | --- | --- | --- | --- | --- | --- | --- | --- | --- | --- | --- | --- | --- | --- |
| O=C1OC(=O)C2C1C1(c3ccccc3)OC2(c2ccccc2)c2c(Br)c(Br)c(Br)c(Br)c21 (centres undefined) | > 100 µM (inactive) | > 100 µM (inactive) | > 100 µM (inactive) | > 100 µM (inactive) | > 100 µM (inactive) | > 100 µM (inactive) | > 100 µM (inactive) | > 100 µM (inactive) | > 100 µM (inactive) | > 100 | 28.7 µM (inactive) | > 100 µM (inactive) | > 100 µM (inactive) | > 100 µM (inactive) |  |  |  |  |  |  |
| COc1ccc(C[C@H](N)C(=O)NC2C(CO)OC(n3cnc4c(N(C)C)ncnc43)C2O)cc1 (some centres undefined) | 0.161 µM (active) | 0.258 µM (active) | 0.133 µM (active) | 0.178 µM (active) | 0.22 µM (active) | 0.196 µM (active) |  | 0.389 µM (active) | 0.524 µM (active) | 2.86 | 0.395 µM (active) |  | 0.695 µM (active) | 0.34 µM (active) | 0.187 µM (active) | 1.01 µM (active) |  |  |  |  |
| Nc1nc(OCc2ccccc2)c2nc[nH]c2n1 [6-O-BENZYLGUANINE] | 97.1 µM (inactive) | 93.1 µM (inactive) | 86.5 µM (inactive) | 90.4 µM (inactive) |  | 64.4 µM (inactive) | 91.4 µM (inactive) | 69.8 µM (inactive) | 87.9 µM (inactive) | 57.1 | 75.7 µM (inactive) | 129 µM (inactive) | 80.7 µM (inactive) | 121 µM (inactive) | 140 µM (inactive) | 47.4 µM (inactive) |  |  |  |  |
| O=C1OC(c2ccccc2)=N/C1=C/NC(CO)C(=O)O (centres undefined) | > 100 µM (inactive) | > 100 µM (inactive) | > 100 µM (inactive) |  | > 100 µM (inactive) | > 100 µM (inactive) | > 100 µM (inactive) | > 100 µM (inactive) | > 100 µM (inactive) | > 100 | > 100 µM (inactive) | 48.9 µM (inactive) | > 100 µM (inactive) | > 100 µM (inactive) | > 100 µM (inactive) | > 100 µM (inactive) |  |  |  |  |
| O=[N+]([O-])c1ccc(C[P+](c2ccccc2)(c2ccccc2)c2ccccc2)cc1 | 83.8 µM (inactive) | 37.8 µM (inactive) | 70.8 µM (inactive) | > 100 µM (inactive) | 26.2 µM (inactive) |  | 67.8 µM (inactive) |  | 37.8 µM (inactive) | 81.5 | > 100 µM (inactive) | > 100 µM (inactive) | > 100 µM (inactive) | > 100 µM (inactive) | 35.1 µM (inactive) | > 100 µM (inactive) |  |  |  |  |
| COc1ccc2cccc(C(=N)c3ccc(C)c4c3CCC4)c2c1 | 7.57 µM (inactive) | 9.4 µM (inactive) | 2.92 µM (inactive) | 12 µM (inactive) |  |  |  | 12.2 µM (inactive) | 3.62 µM (inactive) | 7.46 | 14.5 µM (inactive) | 11.2 µM (inactive) | 10.2 µM (inactive) | 5.7 µM (inactive) | 13 µM (inactive) | 9.98 µM (inactive) |  |  |  |  |
| COc1ccc2nccc(C3=CCC4CCN(C(=O)c5ccccc5)C3C4)c2c1 (centres undefined) | > 100 µM (inactive) | > 100 µM (inactive) | 74.5 µM (inactive) | > 100 µM (inactive) | 46.1 µM (inactive) | > 100 µM (inactive) | > 100 µM (inactive) | 81.8 µM (inactive) | > 100 µM (inactive) | > 100 | > 100 µM (inactive) | > 100 µM (inactive) | > 100 µM (inactive) | > 100 µM (inactive) | > 100 µM (inactive) |  |  |  |  |  |
| COc1ccc2[nH]c3c(c2c1)CCN(C)CC3 | > 100 µM (inactive) | > 100 µM (inactive) | > 100 µM (inactive) |  | > 100 µM (inactive) | > 100 µM (inactive) | > 100 µM (inactive) | 45.3 µM (inactive) | > 100 µM (inactive) | > 100 | > 100 µM (inactive) | > 100 µM (inactive) | > 100 µM (inactive) | > 100 µM (inactive) | > 100 µM (inactive) | > 100 µM (inactive) |  |  |  |  |
| Cc1ccc(S(=O)(=O)Nc2ccccc2C(C)(C)C)cc1 | 15.5 µM (inactive) | 17.3 µM (inactive) | 18 µM (inactive) |  | 18.7 µM (inactive) |  | 17.3 µM (inactive) | 25.6 µM (inactive) | 30.6 µM (inactive) | 20.7 | 30.5 µM (inactive) |  | 25.5 µM (inactive) | 13.7 µM (inactive) | 19.7 µM (inactive) | 28.1 µM (inactive) |  |  |  |  |
| Nc1cc(=O)n(-c2ccccc2)c(=S)n1-c1ccccc1 |  | > 100 µM (inactive) | > 100 µM (inactive) | > 100 µM (inactive) | > 100 µM (inactive) |  | > 100 µM (inactive) |  | > 100 µM (inactive) | > 100 | > 100 µM (inactive) | > 100 µM (inactive) | > 100 µM (inactive) | > 100 µM (inactive) |  | > 100 µM (inactive) |  |  |  |  |
| Cc1nc(-n2nc(-c3ccccc3)cc2-c2ccccc2)sc1C(=O)CC(=O)C(=O)Nc1ccc(O)cc1 | > 100 µM (inactive) | > 100 µM (inactive) | > 100 µM (inactive) | > 100 µM (inactive) | > 100 µM (inactive) |  | > 100 µM (inactive) | > 100 µM (inactive) | > 100 µM (inactive) | > 100 | > 100 µM (inactive) | > 100 µM (inactive) | > 100 µM (inactive) | > 100 µM (inactive) |  | > 100 µM (inactive) |  |  |  |  |
| C1OC1C1CO1 (centres undefined) | 18.1 µM (inactive) | 10.4 µM (inactive) | 80.2 µM (inactive) | 93.1 µM (inactive) | > 100 µM (inactive) | > 100 µM (inactive) | 59.8 µM (inactive) | > 100 µM (inactive) | > 100 µM (inactive) | > 100 | 57.8 µM (inactive) | > 100 µM (inactive) | 24.2 µM (inactive) | 10.3 µM (inactive) | 51.8 µM (inactive) |  |  |  |  |  |
| CC(=O)O/N=C(/C)c1ccccc1O | > 100 µM (inactive) | > 100 µM (inactive) | > 100 µM (inactive) | > 100 µM (inactive) | > 100 µM (inactive) |  | > 100 µM (inactive) | > 100 µM (inactive) | > 100 µM (inactive) |  | > 100 µM (inactive) | > 100 µM (inactive) | > 100 µM (inactive) | > 100 µM (inactive) | > 100 µM (inactive) | > 100 µM (inactive) |  |  |  |  |
| O=C1c2ccccc2C(=O)c2c(O)c(NCCNCCO)cc(O)c21 | 3.77 µM (inactive) | 3.81 µM (inactive) | 2.75 µM (inactive) | 3.99 µM (inactive) | 3.88 µM (inactive) | 11.1 µM (inactive) | 4.93 µM (inactive) | 2.99 µM (inactive) | 12.1 µM (inactive) | 3.64 |  | 1.75 µM (inactive) | 3.33 µM (inactive) | 10.2 µM (inactive) | 5.11 µM (inactive) | 2.17 µM (inactive) |  |  |  |  |
| Cc1ccc(-n2c3nc(=O)n(C)c(=O)c-3nc3ccccc32)cc1 | 1.56 µM (inactive) | 4.3 µM (inactive) | 17 µM (inactive) | 11.5 µM (inactive) | 12.5 µM (inactive) |  | 27.8 µM (inactive) | 14.5 µM (inactive) | 13.8 µM (inactive) | 8.18 | 95.7 µM (inactive) | 12.9 µM (inactive) | 30.2 µM (inactive) | 11.2 µM (inactive) |  | 3.26 µM (inactive) |  |  |  |  |
| CCOC(=O)CCC(NC(=O)c1ccc(OCc2nc3cc(C(F)(F)F)ccc3nc2-c2ccccc2)cc1)C(=O)OCC (centres undefined) | 85.3 µM (inactive) |  | 46.6 µM (inactive) | > 100 µM (inactive) | 43.9 µM (inactive) | 79.6 µM (inactive) | > 100 µM (inactive) | 13.7 µM (inactive) | 87.3 µM (inactive) | 68.2 | > 100 µM (inactive) | > 100 µM (inactive) | > 100 µM (inactive) | 40.6 µM (inactive) | > 100 µM (inactive) | 94.2 µM (inactive) | 20.4 µM (inactive) | 56.6 µM (inactive) | 5.37 µM (inactive) | 86.1 µM (inactive) |
| CC1CN(CCO)CC(C)O1 (centres undefined) | > 100 µM (inactive) |  | > 100 µM (inactive) | > 100 µM (inactive) | > 100 µM (inactive) | > 100 µM (inactive) | > 100 µM (inactive) | > 100 µM (inactive) | > 100 µM (inactive) | > 100 | > 100 µM (inactive) | > 100 µM (inactive) | > 100 µM (inactive) | > 100 µM (inactive) | > 100 µM (inactive) | > 100 µM (inactive) | > 100 µM (inactive) | > 100 µM (inactive) | > 100 µM (inactive) | > 100 µM (inactive) |
| CCS(CC)(CC)CC1CCCC2=CCC(P(=O)(c3ccccc3)c3ccccc3)CC21 (centres undefined) | 10.5 µM (inactive) | 9.08 µM (inactive) | 4.09 µM (inactive) | 11.9 µM (inactive) |  | 2.5 µM (inactive) | 13.3 µM (inactive) | 10.1 µM (inactive) | 18.4 µM (inactive) | 8.26 | 12.7 µM (inactive) | 12.9 µM (inactive) | 10.9 µM (inactive) | 3.81 µM (inactive) | 14.4 µM (inactive) | 9.02 µM (inactive) |  |  |  |  |
| C/C(=C1/N=C(c2ccccc2)OC1=O)c1cccs1 | > 100 µM (inactive) |  | > 100 µM (inactive) | > 100 µM (inactive) | > 100 µM (inactive) | > 100 µM (inactive) | > 100 µM (inactive) | 37.3 µM (inactive) | > 100 µM (inactive) | > 100 | > 100 µM (inactive) | > 100 µM (inactive) | 76 µM (inactive) | > 100 µM (inactive) | > 100 µM (inactive) | > 100 µM (inactive) | > 100 µM (inactive) | > 100 µM (inactive) | > 100 µM (inactive) | > 100 µM (inactive) |
